The test system of test [1] is Human alphaherpesvirus 1. The test is described as follows: Concentration at which 50% of the herpes simplex virus type 1 HSV-1 (F) induced cytopathic effect are inhibited is determined. It counts as functional. The settings on record: read-out: ED50 (the source's name). On the technique in general: Damage to the host cells serves as the signal in cytopathic effect assays.

The subject of test [2] is Vaccinia virus. In words: Antiviral activity against vaccinia virus in HEP -2 cells. It is filed as functional, Orthopoxvirus vaccinia.
Test [3] concerns Human alphaherpesvirus 1. In words: Antiviral activity against herpes simplex virus type 1 HSV-1 (F) expressed as viral rating (VR). It is filed as functional.
A further test relates to HEp-2. In words: Cytotoxic concentration against HEP-2 cells. It is filed as functional, cell-based. Conditions: Homo sapiens.
Test [4] relates to Vaccinia virus. The test is described as follows: Inhibition of vaccinia virus induced cytopathic effects in HEP -2 cells. It is filed as functional. The settings on record: Orthopoxvirus vaccinia, read-out: ED50 (the source's name).
In test [5] the test system is Human alphaherpesvirus 2. The test is described as follows: Antiviral activity against herpes simplex virus type 2 HSV-2 (F) expressed as viral rating (VR). It counts as functional.
Test [6] deals with Human alphaherpesvirus 2. The test is described as follows: Concentration at which 50% of the herpes simplex virus type 2 […] (F) induced cytopathic effect are inhibited is determined. It is filed as functional. The settings on record: read-out: ED50 (the source's name).
The subject of test [7] is Vaccinia virus. The settings on record: read-out: ED50.

Where only a bound is given, the exact number is not on record here.

Take `Nc1ncnc2c1ncn2[C@H]1[C@H](O)[C@H](O)[C@@H](CO)[C@H]1F`: the EC50 in the test on Human alphaherpesvirus 1 [1] came out at 10 µM; with Vaccinia virus [4] it was 0.5 µM; in the test with Human alphaherpesvirus 2 [6] it was 10 µM. Further, the VR is 0.8 in the test on Vaccinia virus [2], 0.4 in the test with Human alphaherpesvirus 1 [3] and 0.4 in the test on Human alphaherpesvirus 2 [5]. This compound also returned a Concentration in the test with HEp-2 of 320 µM.
Consider `Nc1nc2c(ncn2COC(CO)CO)c(=O)[nH]1` [GANCICLOVIR], for which the EC50 in the test on Human alphaherpesvirus 1 [1] was under 1 µM; in the test with Human alphaherpesvirus 2 [6] it was 1 µM. The VR in the test on Human alphaherpesvirus 1 [3] is 1.4; with Human alphaherpesvirus 2 [5] it was 1.6. Besides, the Concentration with HEp-2 is over 3200 µM.
As to `Nc1ncnc2c1ncn2C1C(O)C(O)C(CO)C1O` (stereo not drawn), the values for the EC50 in the test with Human alphaherpesvirus 1 [1], in the test with Vaccinia virus [7] and with Human alphaherpesvirus 2 [6] were 100 µM, 18 µM and 100 µM, respectively. Further, the VR is 0.8 in the test on Vaccinia virus [2], 0.6 in the test with Human alphaherpesvirus 1 [3] and 0.3 in the test on Human alphaherpesvirus 2 [5]. Besides, the Concentration with HEp-2 was over 320 µM.
For the compound `Nc1ncnc2c1ncn2C1C(O)C(F)C(CO)C1O` (stereo not drawn), the EC50 in the test on Human alphaherpesvirus 1 [1] and with Human alphaherpesvirus 2 [6] was 225 µM throughout. Further, the VR with Human alphaherpesvirus 1 [3] and with Human alphaherpesvirus 2 [5] was 0 in each case. The same compound displayed a Concentration in the test on HEp-2 of 225 µM.
Turning to `Nc1ncnc2c1ncn2[C@@H](C=O)O[C@@H](C=O)CO`, the EC50 with Vaccinia virus [7] was 0.5 µM; with Human alphaherpesvirus 2 [6], over 3200 µM. Besides, the figures for the VR in the test on Vaccinia virus [2] and in the test with Human alphaherpesvirus 2 [5] were 1.3 and 0, respectively. This compound returned a Concentration with HEp-2 of 100 µM.
For the compound `Nc1ncnc2c1ncn2[C@H]1[C@H](O)[C@H](O)[C@@H](CO)[C@@H]1F`, the EC50 was 90 µM with Human alphaherpesvirus 1 [1], 63 µM in the test on Vaccinia virus [7] and 90 µM with Human alphaherpesvirus 2 [6]. The results for the VR with Vaccinia virus [2], in the test on Human alphaherpesvirus 1 [3] and with Human alphaherpesvirus 2 [5] were 0.4, 0.1 and 0.1, respectively. In the test on HEp-2, this compound registered a Concentration of over 320 µM.
With `C=C1C(CO)C(O)C(O)C1n1cnc2c(N)ncnc21` (stereo not drawn), the values for the EC50 in the test on Human alphaherpesvirus 1 [1], in the test on Vaccinia virus [7] and in the test with Human alphaherpesvirus 2 [6] were 16 µM, 0.55 µM and 5 µM, respectively. Moreover, the VR is 0.9 in the test with Vaccinia virus [2], 0 in the test on Human alphaherpesvirus 1 [3] and 0.3 in the test on Human alphaherpesvirus 2 [5]. This compound displayed a Concentration in the test with HEp-2 of 50 µM.

The record behind these values is ChEMBL document CHEMBL1124205, “Synthesis and antiviral evaluation of 6'-substituted aristeromycins: potential mechanism-based inhibitors of S-adenosylhomocysteine hydrolase” (J Med Chem, 1988).
